Source: patent publication US20030215817A1, “Modulation of gene expression in formation of fatty atherosclerotic lesions” (priority 2003, published 2003)
Structures can show the parent of a compound that is named as a salt.

How the values were obtained:
REC1_5 (AGTG 184) mRNA = test: quantified RT-PCR, Rec1_5; format: in vivo, rabbit; settings: for Relative Abundance Rec1_5, 100 pg F: hypercholesterolemic plus lercanidipine racemate, eight weeks, H2 (normocholesterolemic)=1.0
Procedure: Nineteen of the isolated DST clones were further validated using RT-PCR analyses; the data are presented in FIGS. 6-24 and in Tables 5-23, below. For each DST examined, the optimal annealing temperature and reagent conditions were determined for the corresponding set of primers (see Table 25) based on results from a preliminary experiment. In eight separate reactions, each set of primers was assayed to find the optimal conditions by adjusting the following four parameters: primer concentration, dNTP concentration, MgCl2 concentration, and number of Taq polymerase units. Once optimal conditions were determined, each DST was run in duplicate multiple simultaneous reactions which usually included at least four dilutions of template (cDNA library), plus control reactions lacking template, and six sequential data points for numbers of cycles.
Reactions were performed using “Hot Start” PCR with the Clontech TaqStart antibody system (Cat. #5400-1). Each reaction contained 1 ml of the cDNA library dilution as template, determined amounts of AmpliTaq DNA polymerase (cat. #N808-0156), MgCl2, dNTPs (GibcoBRL cat. #10297-018), primer, and Clontech TaqStart Antibody in a 20 ml final reaction volume using 10×Taq buffer II (without MgCl2). Typically, a master mix containing all components except the template was prepared and aliquoted. Various templates were then added to these master mix samples and 20 ml volumes were subsequently dispensed into individual reaction tubes. At various times during the PCR run, tubes were removed sequentially on a predetermined schedule in order to quantitate expression of the target DST over a “window” of cycle times. After amplification, the samples were quantified via fluorimetry.
PCR was performed at annealing temperatures that were five degrees above the average melting temperature of each primer pair. For primers greater than 10 bases (in a 0.05M salt solution), melting temperature was calculated using the following formula: Tm=59.9+41[% GC]−[675/Primer Length], where %GC is the decimal value. Following determination of the average melting temperature of the primer pair, the annealing temperature was determined by adding five degrees to the average melting temperature. PCR was performed using the following program: 1) 95 degrees Celsius, 3 minutes; 2) 95 degrees Celsius, 30 seconds; 3) TM+5 degrees Celsius, 30 seconds; 4) 72 degrees Celsius, for a time dependent on target length at 16 bp/second; 5) repeat steps 2-4 33 more cycles; 6) 72 degrees Celsius, 3 minutes; 7) 14 degrees Celsius, forever.
Following temperature cycling, 2 ml of the PCR reaction was added to 140 ml of a 1:280 dilution of PicoGreen (Molecular Probes cat. #P-11495 (10×100 ml)) in TE pH 7.5 in a 96-well Costar UV microtiter plate (Fisher cat. #07-200623). The samples were mixed gently for 1.5 minutes and allowed to equilibrate at room temperature in the dark for 15 minutes. The concentration of the PCR products was quantified by fluorimetry using a PerSeptive Biosystems CytoFluor series 4000 multi-well plate reader.
Background fluorescence was determined by using duplicate control samples that were cycled with all reaction components except the template. The mean value from these duplicate background control samples was subtracted from the corresponding experimental values prior to analyzing results. The sensitivity of the PicoGreen dsDNA assay is reported to be 250 pg/ml (50 pg dsDNA in a […] assay volume) using a fluorescence microplate reader such as was used in these measurements. […]

[1] = tested on: Rec1_6 (MspI ATCC 176) mRNA; test: quantified RT-PCR, Rec1_6; format: in vivo, rabbit; settings: for Relative Abundance Rec1_6, 20 pg F: hypercholesterolemic plus lercanidipine racemate, eight weeks, H2 (normocholesterolemic)=1.0
Procedure: Nineteen of the isolated DST clones were further validated using RT-PCR analyses; the data are presented in FIGS. 6-24 and in Tables 5-23, below. For each DST examined, the optimal annealing temperature and reagent conditions were determined for the corresponding set of primers (see Table 25) based on results from a preliminary experiment. In eight separate reactions, each set of primers was assayed to find the optimal conditions by adjusting the following four parameters: primer concentration, dNTP concentration, MgCl2 concentration, and number of Taq polymerase units. Once optimal conditions were determined, each DST was run in duplicate multiple simultaneous reactions which usually included at least four dilutions of template (cDNA library), plus control reactions lacking template, and six sequential data points for numbers of cycles. Reactions were performed using “Hot Start” PCR with the Clontech TaqStart antibody system (Cat. #5400-1). Each reaction contained 1 ml of the cDNA library dilution as template, determined amounts of AmpliTaq DNA polymerase (cat. #N808-0156), MgCl2, dNTPs (GibcoBRL cat. #10297-018), primer, and Clontech TaqStart Antibody in a 20 ml final reaction volume using 10×Taq buffer II (without MgCl2). Typically, a master mix containing all components except the template was prepared and aliquoted. Various templates were then added to these master mix samples and 20 ml volumes were subsequently dispensed into individual reaction tubes. At various times during the PCR run, tubes were removed sequentially on a predetermined schedule in order to quantitate expression of the target DST over a “window” of cycle times. After amplification, the samples were quantified via fluorimetry. PCR was performed at annealing temperatures that were five degrees above the average melting temperature of each primer pair. For primers greater than 10 bases (in a 0.05M salt solution), melting temperature was calculated using the following formula: Tm=59.9+41[% GC]−[675/Primer Length], where %GC is the decimal value. Following determination of the average melting temperature of the primer pair, the annealing temperature was determined by adding five degrees to the average melting temperature. PCR was performed using the following program: 1) 95 degrees Celsius, 3 minutes; 2) 95 degrees Celsius, 30 seconds; 3) TM+5 degrees Celsius, 30 seconds; 4) 72 degrees Celsius, for a time dependent on target length at 16 bp/second; 5) repeat steps 2-4 33 more cycles; 6) 72 degrees Celsius, 3 minutes; 7) 14 degrees Celsius, forever. Following temperature cycling, 2 ml of the PCR reaction was added to 140 ml of a 1:280 dilution of PicoGreen (Molecular Probes cat. #P-11495 (10×100 ml)) in TE pH 7.5 in a 96-well Costar UV microtiter plate (Fisher cat. #07-200623). The samples were mixed gently for 1.5 minutes and allowed to equilibrate at room temperature in the dark for 15 minutes. The concentration of the PCR products was quantified by fluorimetry using a PerSeptive Biosystems CytoFluor series 4000 multi-well plate reader. Background fluorescence was determined by using duplicate control samples that were cycled with all reaction components except the template. The mean value from these duplicate background control samples was subtracted from the corresponding experimental values prior to analyzing results. The sensitivity of the PicoGreen dsDNA assay is reported to be 250 pg/ml (50 pg dsDNA in a […] assay volume) using a fluorescence microplate reader such as was used in these measurements. […]

COC(=O)C1=C(C)NC(C)=C(C(=O)OC(C)(C)CN(C)CCC(c2ccccc2)c2ccccc2)C1c1cccc([N+](=O)[O-])c1 (racemic) [lercanidipine, lercanidipine hydrochloride]
Relative Abundance Rec1_5, 100 pg F (REC1_5 (AGTG 184) mRNA; cycle 24): 512.5
Relative Abundance Rec1_5, 100 pg F (REC1_5 (AGTG 184) mRNA; cycle 26): 805.0
Relative Abundance Rec1_5, 100 pg F (REC1_5 (AGTG 184) mRNA; cycle 28): 0.2
Relative Abundance Rec1_5, 100 pg F (REC1_5 (AGTG 184) mRNA; cycle 30): 0.6
Relative Abundance Rec1_5, 100 pg F (REC1_5 (AGTG 184) mRNA; cycle 32): 1.1
Relative Abundance Rec1_5, 100 pg F (REC1_5 (AGTG 184) mRNA; cycle 34): 1.0
expression of Rec1_5 at 8 weeks (RT-PCR study), in words (REC1_5 (AGTG 184) mRNA; hypercholesterolemic animals receiving lercanidipine racemate, at 28-30 cycles): decreased
Relative Abundance Rec1_6, 20 pg F ([1]; cycle 24): 3.1
Relative Abundance Rec1_6, 20 pg F ([1]; cycle 26): 2.2
Relative Abundance Rec1_6, 20 pg F ([1]; cycle 28): 2.1
Relative Abundance Rec1_6, 20 pg F ([1]; cycle 30): 1.7
Relative Abundance Rec1_6, 20 pg F ([1]; cycle 32): 1.4
Relative Abundance Rec1_6, 20 pg F ([1]; cycle 34): 1.5
expression of Rec1_6 at 8 weeks (RT-PCR study), in words ([1]; hypercholesterolemic animals receiving lercanidipine racemate): somewhat more elevated
